Experimental findings from patent US20260001922A1, “PEPTIDES TARGETING SODIUM CHANNELS TO TREAT PAIN” (priority 2022, published 2026) are described below.

Positions of bridges follow the written chain, without caps; N, C: chain ends. Residues, ends and D or L forms follow the SMILES beside them.

Broadly, the IC50 is the concentration at which inhibition is half-maximal. A low value points to higher potency.

For series [1], the system named is thermal nociception in naïve rats. To be noted: 1.6 μg i.t.
Series [2] deals with hERG channel (Homo sapiens, UniProt Q12809). Put plainly: in vitro.
hERG channel, sequence (Q12809 whole entry): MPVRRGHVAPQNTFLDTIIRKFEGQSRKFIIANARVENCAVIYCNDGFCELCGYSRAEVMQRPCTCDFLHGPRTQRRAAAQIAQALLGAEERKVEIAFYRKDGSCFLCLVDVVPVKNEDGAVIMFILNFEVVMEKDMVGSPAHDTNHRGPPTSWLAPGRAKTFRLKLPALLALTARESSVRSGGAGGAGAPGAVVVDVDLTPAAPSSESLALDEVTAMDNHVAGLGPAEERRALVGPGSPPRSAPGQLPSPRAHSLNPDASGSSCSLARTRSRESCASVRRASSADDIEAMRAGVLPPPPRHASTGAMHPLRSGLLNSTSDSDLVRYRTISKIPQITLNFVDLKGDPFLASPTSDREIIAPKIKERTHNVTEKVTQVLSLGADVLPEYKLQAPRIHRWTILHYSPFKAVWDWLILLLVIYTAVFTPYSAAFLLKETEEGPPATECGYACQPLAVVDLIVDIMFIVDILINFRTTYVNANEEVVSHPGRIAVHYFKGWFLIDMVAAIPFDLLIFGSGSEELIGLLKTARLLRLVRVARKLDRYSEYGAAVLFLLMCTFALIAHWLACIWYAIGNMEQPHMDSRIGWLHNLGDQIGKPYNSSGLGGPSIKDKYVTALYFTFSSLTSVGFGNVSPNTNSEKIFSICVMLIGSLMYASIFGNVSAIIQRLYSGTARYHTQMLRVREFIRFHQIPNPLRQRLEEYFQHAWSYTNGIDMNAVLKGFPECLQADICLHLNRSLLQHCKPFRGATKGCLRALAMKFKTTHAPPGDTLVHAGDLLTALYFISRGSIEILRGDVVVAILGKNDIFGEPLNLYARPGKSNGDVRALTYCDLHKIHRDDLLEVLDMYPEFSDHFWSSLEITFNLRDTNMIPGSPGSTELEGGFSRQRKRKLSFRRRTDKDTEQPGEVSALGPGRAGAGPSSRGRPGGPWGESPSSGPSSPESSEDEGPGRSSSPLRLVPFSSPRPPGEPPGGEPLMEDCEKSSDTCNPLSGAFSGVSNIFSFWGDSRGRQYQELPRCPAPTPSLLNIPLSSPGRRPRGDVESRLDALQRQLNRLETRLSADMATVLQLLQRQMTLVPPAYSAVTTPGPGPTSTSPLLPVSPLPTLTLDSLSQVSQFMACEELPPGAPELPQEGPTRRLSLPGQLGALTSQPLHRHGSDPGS

For `CSCC[C@@H]1NC(=O)[C@H](Cc2c[nH]c3ccccc23)NC(=O)[C@H](CCCCN)NC(=O)[C@H](CCC(N)=O)NC(=O)[C@@H](NC(=O)[C@@H](N)CCC(N)=O)CSSC[C@@H]2NC(=O)[C@@H]3CSSC[C@@H](C(=O)N[C@@H](CCCNC(=N)N)C(=O)N[C@@H](CCCCN)C(=O)N[C@@H](CCC(=O)O)C(=O)N[C@@H](CC(C)C)C(=O)N[C@@H](CC(C)C)C(N)=O)NC(=O)[C@H](Cc4c[nH]c5ccccc45)NC(=O)[C@H](CC(C)C)NC(=O)[C@H](CCCNC(=N)N)NC(=O)[C@H](CSSC[C@H](NC(=O)[C@H]([C@@H](C)O)NC(=O)[C@H](CCC(N)=O)NC1=O)C(=O)N[C@@H](CC(=O)O)C(=O)N[C@@H](CCCCN)C(=O)N[C@@H](CC(=O)O)C(=O)N[C@@H](CCCNC(=N)N)C(=O)N[C@@H](CCCCN)C(=O)N3)NC(=O)[C@H](CCCNC(=N)N)NC(=O)[C@H](Cc1ccccc1)NC(=O)CNC(=O)[C@H](CCC(=O)O)NC2=O` [PTx2-3127] (H-QCQKWMQTCDKDRKCCEGFRCRLWCRKELL-NH2; disulfide 2-16, 9-21, 15-25), the motor activity entry in series [1] is recorded as “did not lame or significantly alter motor activity”.

In series [2], `CSCC[C@@H]1NC(=O)[C@H](Cc2c[nH]c3ccccc23)NC(=O)[C@H](CCCCN)NC(=O)[C@H](CCC(N)=O)NC(=O)[C@@H](NC(=O)[C@@H](N)Cc2c[nH]cn2)CSSC[C@@H]2NC(=O)[C@@H]3CSSC[C@@H](C(=O)N[C@@H](CCCNC(=N)N)C(=O)N[C@@H](CCCCN)C(=O)N[C@@H](CCC(=O)O)C(=O)N[C@@H](CC(C)C)C(=O)N[C@@H](CC(C)C)C(N)=O)NC(=O)[C@H](Cc4c[nH]c5ccccc45)NC(=O)[C@H](CC(C)C)NC(=O)[C@H](CCCNC(=N)N)NC(=O)[C@H](CSSC[C@H](NC(=O)[C@H]([C@@H](C)O)NC(=O)[C@H](CCC(N)=O)NC1=O)C(=O)N[C@@H](CC(=O)O)C(=O)N[C@@H](CCCCN)C(=O)N[C@@H](CC(=O)O)C(=O)N[C@@H](CCCNC(=N)N)C(=O)N[C@@H](CCCCN)C(=O)N3)NC(=O)[C@H](CCCNC(=N)N)NC(=O)[C@H](Cc1ccccc1)NC(=O)CNC(=O)[C@H](CCC(=O)O)NC2=O` [PTx2-3258] came in with an IC50 of 1 µM.
